Experiments:
[1] = system: soleus muscle; assay: Lipid metabolites (free fatty acid, glycerol, triglyceride; enzymatic analysis) in isolated soleus muscle from normally fed rats; format: cell-based, rat
[2] = system: soleus muscle; assay: Triglyceride and free fatty acid content (enzymatic) in isolated soleus muscle of rats fed high fat diets; format: cell-based, rat; details: 1 h
From the text: (§1) High-fatted rats. Groups of male Wistar rats (n=21/diet) were ad libitum fed high-fat diets containing standard rat chow to which 40% (w/w) of lard, corn oil or olive oil had been added, from the time of weaning (age=21 d) until sacrifice at 50 d. Triacylglycerol from lard contains predominantly saturated fatty acids; that from corn oil […], see Table 4.
(§2) Soleus muscle tissue isolation and incuhation.Immersion and incubation media was Krebs-Henseleit buffer (KHB) containing 118.5 mM NaCl, 4.75 mM KCl, 1.18 mM MgSO4.7H2O and KH2PO4, 24.8 mM NaHCO3, 2.54 mM CaCl2 and 10 mM d-glucose. The medium was gassed continuously with 95% O2/5% CO2. […] Soleus muscles of both legs were excised keeping the tissue immersed in KHB; muscles were separated into two equal parts and transferred to the incubation flasks. At the completion of incubation the muscles were snap frozen in liquid nitrogen, and then trimmed of connective tissue and all visible fat. The muscle strips were stored at −80° C. until analysis.
(§3) Lipid extraction and chromatographic separation of fatty acids. Total lipids were extracted from muscle strips by a modified version of the method of Bligh and Dyer (Gorski et al., 1988, Mol & Cell Biochem 178:113-118; 1. Bligh et al., 1959, Can J Biochem Physiol 37: 911-917). Muscles were homogenised (Soniprep 150) in 0.4 ml of deionised water. Solvent volumes used herein were varied according to the water content of the muscle (ie muscle weight) as described (Bligh & Dyer, supra). 2 vols of methanol containing 0.005% butylated hydroxy toluene (BHT) and 1 vol chloroform were added to the muscle suspension. Homogenates were vortexed at maximum speed for 2 minutes and centrifuged at 2,500 g for 4 minutes. Supernatants were recovered and pellets re-extracted with 2 vol methanol, 1 vol chloroform and 0.8 vol 0.2 N HCl. Residues were vortexed for 2 min then centrifuged at 3,500 g for 3 min. After centrifugation the combined supernatants were diluted with 2v each of milli Q water and chloroform and the phases separated by centrifugation at 3,500 g for 4 minutes. The lower chloroform phase was recovered, neutralised by dropwise addition of 0.2 N methanolic NH4OH and evaporated down in a stream of N2. The samples were stored at −80° C. until required.
(§4) Aminopropyl phase (250 mg) was packed into 16 ml teflon columns with teflon frits placed at the top and bottom of the bonded phase. Columns were placed in a Vac Elut apparatus and washed twice with 2 ml portions of hexane (Prasad et al., 1988, J Chromato 428: 221-228; Kaluzny et al., 1985, J Lipid Res 26: 135-140). The dry lipid samples were taken up in two 0.150 ml portions of chloroform and applied to the column under atmospheric pressure. After adsorption the neutral lipids were eluted with 4 ml of chloroform-2-propanol (2:1, v/v) and the free fatty acids eluted with 4 ml of 2% acetic acid in diethyl ether. The solvent containing the free fatty acids was dried under a stream of N2.
Determination of tissue free fatty acids and triacylglycerol concentration by enzymatic analyses. Free fatty acids were separated from total lipid, evaporated under a stream of N2 and stored at −80° C. until analysis. Samples were dissolved in 50 μl of warm ethanol (35-40° C.), and 0.625 ml of a Triton X-100 (6% w/v) solution was added once the ethanol reached room temperature. The solution was stirred for 30 min, then made up to 0.825 ml with the Triton solution. Free fatty acids were quantified using a commercial method (Boehringer Mannheim) adapted for micro analyses (Cobas Mira, Roche Diagnostics), with palmitic acid standards. Triacyl glycerol levels were quantified in the total lipid fraction (Pointe Scientific) with a glycerol standard.
Total lipid was extracted and quantitated. Results are shown in FIGS. 18A NEFA and 18B triglyceride.

[3] = system: soleus muscle; assay: Individual free fatty acids by gas chromatography in soleus muscle of rats fed high fat diets; set-up: species or system rat; details: 1 hour, GC
From the text: as §1, §2, §3, §4
Gas-liquid chromatographic analysis. Dry free fatty acid residues were processed for derivatisation of methyl esters by the boron trifluoride-methanol method (Prasad, supra). 1 ml of boron trifluoride in methanol (BF3) was added to each sample, the sample vials were heated at 70° C. for 5 minutes, shaken vigorously, and baked for a further 10 minutes. Once the samples reached room temperature 0.5 ml milli Q water was added, the sample vials shaken, 0.1 ml heptane was added and the sample shaken again. 0.05 ml of the top heptane layer was removed for GLC analysis. A Model HP5890 Plus Series 2 (Hewlett-Packard) gas chromatograph equipped with a DB-225 column was used to separate the methyl esters of the fatty acids and a Model HP 5890 GC with a Model HP 5973 MS (Hewlett-Packard) GC/MS used to confirm the identity of individual free fatty acids. […]

[4] = rats fed diet high in olive oil

With rat CGRP-1 the “soleus muscle free fatty acid concentration, agonist alone” value ([1]; 1 pM CGRP, 1 h (FIG. 3C)) was 166 ± 18 nmol/g, the “soleus muscle free fatty acid content, agonist alone” value ([1]; 100 nM, 1 h, normal-fed rats (FIG. 3A, 3B)) was 334 ± 52 nmol/g and the “triacylglycerol (triglyceride) content” value ([1]; soleus, normally fed rats, 60-min, 100 nM amylin or CGRP-1, 4.4 μM norepinephrine, control 1.17±0.15, not significant) was 1.9 ± 0.23 µmol/g. For the same substance, the intramuscular glycerol content ([1]; soleus, normally fed rats, 1 h, 100 nM amylin or CGRP-1, 4.4 μM norepinephrine, control 0.07±0.007) was 0.04 ± 0.008 nmol/g, the “soleus muscle triglyceride content” value ([2]; diet with 40% added lard, 100 nM amylin or CGRP-1, 4.4 μM norepinephrine, control 1.14±0.16) was 0.75 ± 0.08 µmol/g and the “soleus muscle free fatty acid content” value ([2]; diet with 40% added lard, 100 nM amylin or CGRP-1, 4.4 μM norepinephrine, control 43±8) was 64 ± 7 nmol/g. The “soleus muscle triglyceride content” value ([2]; diet with 40% corn oil, 100 nM, control 0.89±0.06 μmol/g) was 0.48±0.06 [mol/g, the “soleus muscle free fatty acid content” value ([2]; diet with 40% corn oil, 100 nM, control 35±4) was 99 ± 17 nmol/g and the “soleus muscle triglyceride content” value ([2]; diet with 40% olive oil, 100 nM, control 0.83±0.1) was 0.52 ± 0.08 µmol/g. For the same substance, the “soleus muscle free fatty acid content” value ([2]; diet with 40% olive oil, 100 nM, control 15±3) was 55 ± 14 nmol/g, the “free fatty acid adrenic C22:4” value ([3]; rats fed diet high in corn oil) was 0.04 ± 0.002 nmol/g wwt and the “free fatty acid arachidic C20:0” value ([3]; rats fed diet high in corn oil) was 0.03 ± 0.005 nmol/g wwt. For the same substance, the “free fatty acid arachidonic C20:4” value ([3]; rats fed diet high in corn oil) was 0.02 ± 0.002 nmol/g wwt, the “free fatty acid cervonic C22:6” value ([3]; rats fed diet high in corn oil) was 0.03 ± 0.003 nmol/g wwt and the “free fatty acid linoleic C18:2” value ([3]; rats fed diet high in corn oil) was 0.18 ± 0.008 nmol/g wwt. The “free fatty acid linolenic C18:3” value ([3]; rats fed diet high in corn oil) was 0.17 ± 0.01 nmol/g wwt, the “free fatty acid margaric C17:0” value ([3]; rats fed diet high in corn oil) was 0.02 ± 0.003 nmol/g wwt and the “free fatty acid myristic C14:0” value ([3]; rats fed diet high in corn oil) was 0.03 ± 0.02 nmol/g wwt. The “free fatty acid oleic C18:1” value ([3]; rats fed diet high in corn oil) was 0.16 ± 0.01 nmol/g wwt, the “free fatty acid palmitic C16:0” value ([3]; rats fed diet high in corn oil) was 0.16 ± 0.03 nmol/g wwt and the “free fatty acid palmitoleic (n-7) C16:1” value ([3]; rats fed diet high in corn oil) was 0.01 ± 0.0008 nmol/g wwt. For the same substance, the “free fatty acid palmitoleic (n-9) C16:1” value ([3]; rats fed diet high in corn oil) was 0.20 ± 0.008 nmol/g wwt, the “free fatty acid pentadecanoic C15:0” value ([3]; rats fed diet high in corn oil) was 0.04 ± 003 nmol/g wwt and the “free fatty acid stearic C18:0” value ([3]; rats fed diet high in corn oil) was 0.39 ± 0.02 nmol/g wwt. For the same substance, the “free fatty acid timnodonic C20:5” value ([3]; rats fed diet high in corn oil) was 0.04 ± 0.001 nmol/g wwt, the “free fatty acid vaccenic C18:1” value ([3]; rats fed diet high in corn oil) was 0.02 ± 0.004 nmol/g wwt and the “free fatty acid adrenic C22:4” value ([3]; rats fed diet high in lard) was 0.04 ± 0.005 nmol/g wwt. The “free fatty acid arachidic C20:0” value ([3]; rats fed diet high in lard) was 0.07 ± 0.004 nmol/g wwt, the “free fatty acid arachidonic C20:4” value ([3]; rats fed diet high in lard) was 0.02 ± 0.001 nmol/g wwt and the “free fatty acid cervonic C22:6” value ([3]; rats fed diet high in lard) was 0.015 ± 0.002 nmol/g wwt. For the same substance, the “free fatty acid linoleic C18:2” value ([3]; rats fed diet high in lard) was 0.23 ± 0.005 nmol/g wwt, the “free fatty acid margaric C17:0” value ([3]; rats fed diet high in lard) was 0.09 ± 0.01 nmol/g wwt and the “free fatty acid myristic C14:0” value ([3]; rats fed diet high in lard) was 0.03 ± 0.007 nmol/g wwt. The “free fatty acid oleic C18:1” value ([3]; rats fed diet high in lard) was 0.25 ± 0.02 nmol/g wwt, the “free fatty acid palmitic C16:0” value ([3]; rats fed diet high in lard) was 0.24 ± 0.01 nmol/g wwt and the “free fatty acid palmitoleic (n-7) C16:1” value ([3]; rats fed diet high in lard) was 0.02 ± 0.005 nmol/g wwt. For the same substance, the “free fatty acid palmitoleic (n-9) C16:1” value ([3]; rats fed diet high in lard) was 0.03 ± 0.003 nmol/g wwt, the “free fatty acid pentadecanoic C15:0” value ([3]; rats fed diet high in lard) was 0.14 ± 0.01 nmol/g wwt and the “free fatty acid stearic C18:0” value ([3]; rats fed diet high in lard) was 0.35 ± 0.06 nmol/g wwt. For the same substance, the “free fatty acid timnodonic C20:5” value ([3]; rats fed diet high in lard) was 0.02 ± 0.002 nmol/g wwt, the “free fatty acid vaccenic C18:1” value ([3]; rats fed diet high in lard) was 0.03 ± 0.006 nmol/g wwt and the “free fatty acid adrenic C22:4” value [3, 4] was 0.03 ± 0.006 nmol/g wwt. The “free fatty acid arachidic C20:0” value [3, 4] was 0.04 ± 0.001 nmol/g wwt, the “free fatty acid arachidonic C20:4” value [3, 4] was 0.02 ± 0.007 nmol/g wwt and the “free fatty acid cervonic C22:6” value [3, 4] was 0.11 ± 0.03 nmol/g wwt. The “free fatty acid linoleic C18:2” value [3, 4] was 0.06 ± 0.01 nmol/g wwt, the “free fatty acid linolenic C18:3” value [3, 4] was 0.03 ± 0.0009 nmol/g wwt and the “free fatty acid margaric C17:0” value [3, 4] was 0.03 ± 0.012 nmol/g wwt. The “free fatty acid myristic C14:0” value [3, 4] was 0.015 ± 0.0009 nmol/g wwt, the “free fatty acid oleic C18:1” value [3, 4] was 0.34 ± 0.01 nmol/g wwt and the “free fatty acid palmitic C16:0” value [3, 4] was 0.20 ± 0.006 nmol/g wwt. For the same substance, the “free fatty acid palmitoleic (n-7) C16:1” value [3, 4] was 0.02 ± 0.002 nmol/g wwt, the “free fatty acid palmitoleic (n-9) C16:1” value [3, 4] was 0.27 ± 0.013 nmol/g wwt and the “free fatty acid pentadecanoic C15:0” value [3, 4] was 0.08 ± 002 nmol/g wwt. The “free fatty acid stearic C18:0” value [3, 4] was 0.12 ± 0.004 nmol/g wwt, the “free fatty acid timnodonic C20:5” value [3, 4] was 0.01 ± 0.001 nmol/g wwt and the “free fatty acid vaccenic C18:1” value [3, 4] was 0.17 ± 0.008 nmol/g wwt.

Source: patent US20040038861A1, “Methods and compositions for normalizing lipid levels in mammalian tissues” (priority 2001, published 2004)
